Source: patent publication US9382208B1, “Negative allosteric modulators of metabotropic glutamate receptor 2” (Vanderbilt University, priority 2015, dated 2016)
Read-outs that look alike come from different tables or passages of the source.

Experiments:
[1] = system: group II mGlu receptors (mGlu2 and mGlu3); conditions: cited from earlier work
[2] = target: T1, rat mGlu2 (Rattus norvegicus, UniProt P31421); assay: mGlu2 Ca2+ flux assay; format: cell-based; conditions: for remaining activity at 30 µM: amplitude of response in the presence of 30 μM test compound as percentage of maximal response to glutamate, read-out: rat mGlu2 Glu max (%)
T1 construct: expressed in transfected cells
T1 sequence (P31421 19-872): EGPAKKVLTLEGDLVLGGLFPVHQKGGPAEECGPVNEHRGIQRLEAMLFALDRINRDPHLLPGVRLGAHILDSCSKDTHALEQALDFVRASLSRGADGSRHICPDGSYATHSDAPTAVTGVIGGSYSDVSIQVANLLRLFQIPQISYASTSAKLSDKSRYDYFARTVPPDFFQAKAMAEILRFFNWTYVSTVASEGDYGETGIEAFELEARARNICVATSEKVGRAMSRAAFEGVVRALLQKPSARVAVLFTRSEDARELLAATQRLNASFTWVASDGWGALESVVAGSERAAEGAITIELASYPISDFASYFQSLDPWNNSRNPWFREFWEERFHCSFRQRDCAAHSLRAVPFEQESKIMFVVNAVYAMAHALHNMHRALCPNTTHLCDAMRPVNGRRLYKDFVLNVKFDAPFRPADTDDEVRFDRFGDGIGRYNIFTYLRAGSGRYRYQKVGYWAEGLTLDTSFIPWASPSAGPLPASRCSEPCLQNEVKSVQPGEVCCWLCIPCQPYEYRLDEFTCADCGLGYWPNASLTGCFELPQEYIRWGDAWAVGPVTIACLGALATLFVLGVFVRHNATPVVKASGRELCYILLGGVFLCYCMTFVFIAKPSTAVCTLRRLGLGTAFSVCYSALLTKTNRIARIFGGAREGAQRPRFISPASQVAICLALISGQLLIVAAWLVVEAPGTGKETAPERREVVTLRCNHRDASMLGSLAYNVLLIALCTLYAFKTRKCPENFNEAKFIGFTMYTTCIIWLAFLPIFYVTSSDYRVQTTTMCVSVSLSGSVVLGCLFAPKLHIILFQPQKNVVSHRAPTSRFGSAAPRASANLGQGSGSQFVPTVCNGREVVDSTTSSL
Method in brief: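 Gα15 HEK293 cells stably expressing rat mGlu2, Fluo-4 loaded; compound added, then glutamate at EC20 after 2.3 min and EC80 afterward, calcium flux read as F/F0. Peak amplitude around EC80 addition normalized to glutamate max; IC50 by unconstrained 4-parameter fit, top concentration 30 μM.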

[3] = system: Aβ-induced neurodegeneration; conditions: cited from earlier work
[4] = system: central mGlu2 and mGlu3 receptors; conditions: in vivo; cited from earlier work
[5] = system: C57B16/J mice; conditions: FST; cited from earlier work
[6] = system: rat; conditions: rat FST, normal animals; cited from earlier work
[7] = system: mouse; conditions: mouse TST, normal animals; cited from earlier work
[8] = system: Helpless (H) mice; conditions: cited from earlier work; for activity in the tail suspension test: Helpless (H) mice
[9] = system: mice; conditions: cited from earlier work
[10] = system: olfactory bulbectomized rats; conditions: repeated administration for 14 days; cited from earlier work
[11] = system: social isolation-reared mice; conditions: cited from earlier work
[12] = CFS model; cited from earlier work
[13] = treatment for 7 days; cited from earlier work
[14] = Gα15 HEK293 cells stably expressing rat mGlu2, glutamate EC80 addition, read-out: rat mGlu2 IC50

CCCCCCCOC(=O)[C@@]1(F)[C@@H]2C[C@@H](OCc3ccc(Cl)c(Cl)c3)[C@@](N)(C(=O)O)[C@@H]21 [BCI-838]
levels of monomeric and oAβ peptides in the hippocampus and cortex ([1]; three months of treatment, two AD mouse models): decreased | Dutch APP transgene-associated learning and memory impairment ([1]; three months of treatment): reversed | anxiolytic effects ([1]; three months of treatment): anxiolytic effects | hippocampal progenitor cell proliferation ([1]; wild-type and Alzheimer's diseased mice, 3 months): stimulated

CS(=O)(=O)C1CCN(Cc2ccc3c(c2)c(=O)c(C(N)=O)cn3-c2ccc(F)cc2)CC1 [Compound 76, 1-(4-fluorophenyl)-6-((4-(methylsulfonyl)piperidin-1-yl)methyl)-4-oxo-1,4-dihydroquinoline-3-carboxamide]
IC50 [2, 14]: 1120 nM | remaining activity at 30 µM [2]: 1.29%

NC(=O)c1cn(-c2ccc(F)cc2)c2ccc(CN3CCC(C(F)(F)F)CC3)cc2c1=O [Compound 77, 1-(4-fluorophenyl)-4-oxo-6-((4-(trifluoromethyl)piperidin-1-yl)methyl)-1,4-dihydroquinoline-3-carboxamide]
IC50 [2, 14]: 823 nM | remaining activity at 30 µM [2]: 1.41%

NC(=O)c1cn(-c2ccc(F)cc2)c2ccc(CN3CCC(F)(F)CC3)cc2c1=O [Compound 78, 6-((4,4-difluoropiperidin-1-yl)methyl)-1-(4-fluorophenyl)-4-oxo-1,4-dihydroquinoline-3-carboxamide]
IC50 [2, 14]: 197 ± 91 nM | remaining activity at 30 µM [2]: 1.59 ± 0.27%

CC1CN(Cc2ccc3c(c2)c(=O)c(C(N)=O)cn3-c2ccc(F)cc2)CCO1 (centres unmarked) [Compound 79, 1-(4-fluorophenyl)-6-((2-methylmorpholino)methyl)-4-oxo-1,4-dihydroquinoline-3-carboxamide]
IC50 [2, 14]: 328 ± 64 nM | remaining activity at 30 µM [2]: 1.31 ± 0.04%

CN(Cc1ccc2c(c1)c(=O)c(C(N)=O)cn2-c1ccc(F)cc1)C1CC(F)(F)C1 [Compound 80, 6-(((3,3-difluorocyclobutyl)(methyl)amino)methyl)-1-(4-fluorophenyl)-4-oxo-1,4-dihydroquinoline-3-carboxamide]
IC50 [2, 14]: 397 nM | remaining activity at 30 µM [2]: 1.03%

NC(=O)c1cn(-c2ccc(F)cc2)c2ccc(CN3CCN(CC(F)(F)F)CC3)cc2c1=O [Compound 81, 1-(4-fluorophenyl)-4-oxo-6-((4-(2,2,2-trifluoroethyl)piperazin-1-yl)methyl)-1,4-dihydroquinoline-3-carboxamide]
IC50 [2, 14]: 753 nM | remaining activity at 30 µM [2]: 1.19%

CC(=O)N1CCN(Cc2ccc3c(c2)c(=O)c(C(N)=O)cn3-c2ccc(F)cc2)CC1 [Compound 82, 6-((4-acetylpiperazin-1-yl)methyl)-1-(4-fluorophenyl)-4-oxo-1,4-dihydroquinoline-3-carboxamide]
IC50 [2, 14]: 3190 nM | remaining activity at 30 µM [2]: 2.14%

CS(=O)(=O)N1CCN(Cc2ccc3c(c2)c(=O)c(C(N)=O)cn3-c2ccc(F)cc2)CC1 [Compound 83, 1-(4-fluorophenyl)-6-((4-(methylsulfonyl)piperazin-1-yl)methyl)-4-oxo-1,4-dihydroquinoline-3-carboxamide]
IC50 [2, 14]: 694 nM | remaining activity at 30 µM [2]: 1.47%

NC(=O)c1cn(-c2ccc(F)cc2)c2ccc(CN3CCS(=O)(=O)CC3)cc2c1=O [Compound 84, 6-((1,1-dioxidothiomorpholino)methyl)-1-(4-fluorophenyl)-4-oxo-1,4-dihydroquinoline-3-carboxamide]
IC50 [2, 14]: 1160 nM | remaining activity at 30 µM [2]: 2.04%

NC(=O)c1cn(-c2ccc(F)cc2)c2ccc(CN3CCCS(=O)(=O)CC3)cc2c1=O [Compound 85, 6-((1,1-dioxido-1,4-thiazepan-4-yl)methyl)-1-(4-fluorophenyl)-4-oxo-1,4-dihydroquinoline-3-carboxamide]
IC50 [2, 14]: 422 ± 52 nM | remaining activity at 30 µM [2]: 1.24 ± 0.04%

NC(=O)c1cn(-c2ccc(F)cc2)c2ccc(CN3CCC(F)(F)C3)cc2c1=O [Compound 86, 6-((3,3-difluoropyrrolidin-1-yl)methyl)-1-(4-fluorophenyl)-4-oxo-1,4-dihydroquinoline-3-carboxamide]
IC50 [2, 14]: 259 nM | remaining activity at 30 µM [2]: 0.98%

CN1CCN(Cc2ccc3c(c2)c(=O)c(C(N)=O)cn3-c2ccc(F)cc2)CC1 [Compound 87, 1-(4-fluorophenyl)-6-((4-methylpiperazin-1-yl)methyl)-4-oxo-1,4-dihydroquinoline-3-carboxamide]
IC50 [2, 14]: 1360 nM | remaining activity at 30 µM [2]: 0.93%

C[C@H]1CN(Cc2ccc3c(c2)c(=O)c(C(N)=O)cn3-c2ccc(F)cc2)CCO1 [Compound 88, (S)-1-(4-fluorophenyl)-6-((2-methylmorpholino)methyl)-4-oxo-1,4-dihydroquinoline-3-carboxamide]
IC50 [2, 14]: 724 nM | remaining activity at 30 µM [2]: 1.36%

C[C@@H]1CN(Cc2ccc3c(c2)c(=O)c(C(N)=O)cn3-c2ccc(F)cc2)CCO1 [Compound 89, (R)-1-(4-fluorophenyl)-6-((2-methylmorpholino)methyl)-4-oxo-1,4-dihydroquinoline-3-carboxamide]
IC50 [2, 14]: 1150 nM | remaining activity at 30 µM [2]: 1.08%

CC1(C)CN(Cc2ccc3c(c2)c(=O)c(C(N)=O)cn3-c2ccc(F)cc2)CCO1 [Compound 90, 6-((2,2-dimethylmorpholino)methyl)-1-(4-fluorophenyl)-4-oxo-1,4-dihydroquinoline-3-carboxamide]
IC50 [2, 14]: 142 nM | remaining activity at 30 µM [2]: 2.01%

CN(Cc1cc(F)c2c(c1)c(=O)c(C(N)=O)cn2-c1ccc(F)cc1)C1CC(F)(F)C1 [Compound 91, 6-(((3,3-difluorocyclobutyl)(methyl)amino)methyl)-8-fluoro-1-(4-fluorophenyl)-4-oxo-1,4-dihydroquinoline-3-carboxamide]
IC50 [2, 14]: > 30000 nM

C[C@@H]1CN(Cc2cc(F)c3c(c2)c(=O)c(C(N)=O)cn3-c2ccc(F)cc2)C[C@H](C)O1 [Compound 92, 6-((cis-2,6-dimethylmorpholino)methyl)-8-fluoro-1-(4-fluorophenyl)-4-oxo-1,4-dihydroquinoline-3-carboxamide]
IC50 [2, 14]: 4410 nM | remaining activity at 30 µM [2]: 2.23%

CC1CN(Cc2cc(F)c3c(c2)c(=O)c(C(N)=O)cn3-c2ccc(F)cc2)CCO1 (centres unmarked) [Compound 93, 8-fluoro-1-(4-fluorophenyl)-6-((2-methylmorpholino)methyl)-4-oxo-1,4-dihydroquinoline-3-carboxamide]
IC50 [2, 14]: 6520 nM | remaining activity at 30 µM [2]: 0.14%

NC(=O)c1cn(-c2ccc(F)cc2)c2c(F)cc(CN3CCC(F)(F)CC3)cc2c1=O [Compound 94, 6-((4,4-difluoropiperidin-1-yl)methyl)-8-fluoro-1-(4-fluorophenyl)-4-oxo-1,4-dihydroquinoline-3-carboxamide]
IC50 [2, 14]: 1770 nM | remaining activity at 30 µM [2]: 5.78%

NC(=O)c1cn(-c2ccc(F)cc2)c2c(F)cc(CN3CCC(F)(F)C3)cc2c1=O [Compound 95, 6-((3,3-difluoropyrrolidin-1-yl)methyl)-8-fluoro-1-(4-fluorophenyl)-4-oxo-1,4-dihydroquinoline-3-carboxamide]
IC50 [2, 14]: > 10000 nM | remaining activity at 30 µM [2]: 31.1%

CN(Cc1cccnc1)c1ccc2c(c1)c(=O)c(C#N)cn2-c1ccc(F)cc1 [Compound 96, 1-(4-Fluorophenyl)-6-(methyl(pyridin-3-ylmethyl)amino)-4-oxo-1,4-dihydroquinoline-3-carbonitrile]
IC50 [2]: 3160 nM | remaining activity at 30 µM [2]: 3.44%

N[C@](CC1c2ccccc2Oc2ccccc21)(C(=O)O)[C@H]1C[C@@H]1C(=O)O [LY341495]
Aβ-induced neurodegeneration [3]: prevented | hypolocomotor effect of mGlu2/3 agonist (LY379268) [4]: achieved the same result | immobility time [5]: dose-dependently reduced | antidepressant-like effects [6]: Antidepressant-like effects | antidepressant-like effects [7]: Antidepressant-like effects | activity in the tail suspension test [8]: active | antidepressant effect in helpless mice ([8]; acute administration): potent antidepressant effect | marble-burying behavior [9]: significantly reduce marble-burying behavior

CCS(=O)(=O)N(Cc1cccnc1)c1cccc(-c2ccc(C#N)cc2)c1 [LY566332]
Aβ-induced neurodegeneration [3]: amplified

N[C@]1(C(=O)O)[C@H]2[C@@H](C[C@H]1OCc1ccc(Cl)c(Cl)c1)[C@]2(F)C(=O)O [MGS0039]
hyperactivity in the open field test [10]: attenuated the hyperactivity | learning deficit in the passive avoidance test [10]: attenuated the learning deficit | antidepressant-like effects [6]: Antidepressant-like effects | immobility in the FST [11]: reversed the increased immobility | freezing behavior [12]: significantly decreased | number of escape failures [13]: significantly reduced | antidepressant-like effects [7]: Antidepressant-like effects | marble-burying behavior [9]: reduced marble-burying behavior | spontaneous locomotor activity [9]: no significant change

Cc1cc(-c2cccc(C3=Nc4cc(C)c(C(F)(F)F)cc4NC(=O)C3)c2)cc(C)n1 [RO4491533]
hypolocomotor effect of mGlu2/3 agonist (LY379268) [4]: reversed the hypolocomotor effect | immobility time [5]: dose-dependently reduced | activity in the tail suspension test [8]: active

CN1C(=O)CN=C(c2ccccc2)c2cc(Cl)ccc21 [diazepam]
freezing behavior [12]: significantly decreased

CNCCC(Oc1ccc(C(F)(F)F)cc1)c1ccccc1 (centres unmarked) [fluoxetine]
antidepressant effect in helpless mice ([8]; chronic (21 days) treatment): full antidepressant effect
